Here are results for 1 compound from patent US4025626A, “7-Acyl-3-(ureidoalkyl substituted tetrazolylthiomethyl)-cephalosporins” (SmithKline Corporation, priority 1975, dated 1977).

Converted amounts (≈) assume the structure as drawn. Like-named read-outs stand apart in the source and are kept apart here.

What is called ED50 is the midpoint of the dose-response relation. A lower ED50 goes with an effect at a small dose. The MIC is the least concentration at which growth counts as inhibited.

Assay [1] has as its system E. coli 12140. The experiment in a line: in vivo mouse protection test. Particulars: Escherichia coli. How it is done: (§1) 4200 upon subcutaneous injection; and 17.5 mg./kg. against E. coli 12140 and 25.5 mg./kg. against Kleb. pneumo. 4200 upon oral administration.
Assay [2] deals with Kleb. pneumo. 4200. Description: in vivo mouse protection test. How it is done:
as §1

Assay [3] has as its system Entero. cloacae HH 31254. The experiment in a line: in vitro MIC testing. In kind it is cell-based. Particulars: Enterobacter cloacae, HH31254, two values given. How it is done: (§2) The compounds of Formula I have exceptional antibacterial activity against both Gram-positive and Gram-negative organisms. Minimum inhibitory concentrations (MIC's) range from 0.1 to >200 μg./ml. in in vitro testing. Test results for the compound 7-D-mandelamido-3-[1-(2-ureidoethyl)tetrazol-5-ylthiomethyl]-3-cephem-4-carboxylic acid are given below: […]

Assay [4] has as its system Kleb. pneumo. SK 1200. Description: in vitro MIC testing. Type of assay: cell-based. Particulars: two values given. How it is done: as §2
Assay [5] relates to Strep. faecalis HH 34358. Description: in vitro MIC testing. In kind it is cell-based. As to conditions: Enterococcus faecalis, HH34358, two values given. How it is done:
as §2

For assay [6], the system named is S. aureus SK 23390. The experiment in a line: in vitro MIC testing. In kind it is cell-based. Particulars: Staphylococcus aureus, SK23390, two values given. How it is done: as §2
The test system of assay [7] is Proteus morgani 179. The experiment in a line: in vitro MIC testing. Type of assay: cell-based. Particulars: two values given. How it is done:
as §2

Assay [8] relates to Serratia Marc. ATCC 13880. Description: in vitro MIC testing. In kind it is cell-based. Particulars: ATCC13880, two values given. How it is done: as §2
Assay [9] relates to S. villaluz SK 70390. The experiment in a line: in vitro MIC testing. Type of assay: cell-based. As to conditions: two values given. How it is done:
as §2

The subject of assay [10] is E. coli HH 33779. Description: in vitro MIC testing. In kind it is cell-based. Particulars: Escherichia coli, HH33779, two values given. How it is done:
as §2

In assay [11] the test system is Kleb. pneumo. SK 4200. The experiment in a line: in vitro MIC testing. In kind it is cell-based. As to conditions: two values given. How it is done:
as §2

Assay [12] deals with S. aureus HH 127. The experiment in a line: in vitro MIC testing. In kind it is cell-based. Particulars: two values given. How it is done: as §2
In assay [13] the test system is Shigella HH 117. Description: in vitro MIC testing. Type of assay: cell-based. Particulars: two values given. How it is done:
as §2

For assay [14], the system named is E. coli SK 12140. Description: in vitro MIC testing. Particulars: Escherichia coli, SK12140, two values given. In kind it is cell-based. How it is done: as §2
The subject of assay [15] is Pseudo. aerug. HH 63. The experiment in a line: in vitro MIC testing. Type of assay: cell-based. As to conditions: two values given. How it is done:
as §2

With `NC(=O)NCCn1nnnc1SCC1=C(C(=O)O)N2C(=O)C(NC(=O)[C@H](O)c3ccccc3)[C@H]2SC1` (stereo partly drawn) [7-D-Mandelamido-3-[1-(2-ureidoethyl)tetrazol-5-ylthiomethyl]-3-cephem-4-carboxylic acid], the 50% effective dose (ED50) in assay [1] (E. coli 12140, oral administration) is 17.5 mg/kg; in assay [1] (sc, E. coli 12140, subcutaneous injection), 0.86 mg/kg; in [2] (Kleb. pneumo. 4200, oral administration), 25.5 mg/kg; in assay [2] (sc, Kleb. pneumo. 4200, subcutaneous injection) it was 1.34 mg/kg. The MIC turned out to be 0.8 µg/mL (≈ 1.5 µM) in assay [3]; 0.4 µg/mL (≈ 0.748 µM) in [4]; 25 µg/mL (≈ 46.8 µM) in [5]; 0.4 µg/mL (≈ 0.748 µM) in assay [6]; 0.8 µg/mL (≈ 1.5 µM) in assay [7]; 25 µg/mL (≈ 46.8 µM) in assay [8]. For the same compound, the minimal inhibitory concentration (MIC) came out at 25 µg/mL (≈ 46.8 µM) in assay [9]; 1.6 µg/mL (≈ 2.99 µM) in assay [10]; 0.8 µg/mL (≈ 1.5 µM) in assay [11]; 1.6 µg/mL (≈ 2.99 µM) in [12] (S. aureus HH 127); 3.1 µg/mL (≈ 5.8 µM) in assay [12] (Staphylococcus aureus, HH127, S. aureus HH 127, read-out: MIC); 0.2 µg/mL (≈ 0.374 µM) in [13] (Shigella HH 117). Besides, the MIC in assay [13] (Shigella, HH117, Shigella HH 117, read-out: MIC) is 0.1 µg/mL (≈ 0.187 µM); in assay [14] it was 0.8 µg/mL (≈ 1.5 µM); in assay [15], > 200 µg/mL.
